Measurements taken from patent publication US20240301319A1, “PERFUMING COMPOSITIONS” (FIRMNICH SA, priority 2017, published 2024).

Key:
[1] = Odor threshold and odor value of perfuming compounds (Tables 4 to 10)
[2] = Volatility of perfuming compounds (Tables 4 to 10), with top/middle/bottom note type; format: physicochemical
How it was run: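 Volatility is expressed in μg/l in air. Top notes are 70,000 to 100 μg/l, middle notes 99 to 50 μg/l, and bottom notes 49 to 0.1 μg/l. Compounds are grouped by olfactive family: watery, green, fruity, citrus, sweet, gourmand and woody.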

[3] = Table 6, perfuming compounds having a fruity note
[4] = Table 8, perfuming compounds having a sweet note
[5] = Table 6, perfuming compounds having a fruity note, note type by volatility
[6] = Table 8, perfuming compounds having a sweet note, note type by volatility
[7] = Table 9, perfuming compounds having a gourmand note, note type by volatility
[8] = Table 7, citrus note, top, middle or bottom note
[9] = perfuming compounds having a green note
[10] = note type (Top/Middle/Bottom) by volatility, perfuming compounds having a green note
[11] = Table 4, watery note, equals volatility divided by odor threshold
[12] = Table 7, citrus note, equals volatility divided by odor threshold
[13] = Table 4, watery note, top, middle or bottom note
[14] = Table 10, perfuming compounds having a woody note, note type by volatility

CCCCC1CCCC(=O)O1 (stereo not shown) [5-NONANOLIDE]
Odor Threshold [1, 3]: 1.16E−05 μg/l air | Odor Value [1, 3]: 2.06E+06 | Odor Threshold [1, 4]: 1.16E−05 μg/l air | Odor Value [1, 4]: 2.06E+06 | Odor Threshold ([1]; Table 9, gourmand note): 1.16E−05 μg/l air | Volatility [2, 3]: 23.87 μg/l air | Type [2, 5]: Bottom | Volatility [2, 4]: 23.87 μg/l air | Type [2, 6]: Bottom | Volatility ([2]; Table 9, gourmand note): 23.87 μg/l air | Type [2, 7]: Bottom

CITRONELLOL (A) + GERANIOL (B)
Odor Threshold (μg/l air) ([1]; Table 7, citrus note): 7.69E−04 μg/l air | Volatility (μg/l air) ([2]; Table 7, citrus note): 89.88 μg/l air | Type [2, 8]: Middle

CC/C=C\CCOC(C)=O [(Z)-3-HEXENYL ACETATE]
Odor Threshold (μg/l air) [1, 9]: 1.00E−02 μg/l air | Type [2, 10]: Top | Volatility (μg/l air) [2, 9]: 3398.34 μg/l air

8(9)-METHOXY-TRICYCLO[5.2.1.0(2,6)]DECANE-3(4)-CARBALDEHYDE
Odor Threshold (μg/l air) ([1]; Table 4, watery note): 4.02E−05 μg/l air | Odor Value [1, 11]: 1.46E+05 | Odor Threshold [1, 3]: 4.02E−05 μg/l air | Odor Value [1, 3]: 1.46E+05 | Odor Threshold (μg/l air) ([1]; Table 7, citrus note): 4.02E−05 μg/l air | Odor Value [1, 12]: 1.46E+05 | Volatility (μg/l air) ([2]; Table 4, watery note): 5.87 μg/l air | Type [2, 13]: bottom (perfuming compounds having a volatility ranging from 49 to 0.1 μg/l in air are referred to as “bottom notes”) | Volatility [2, 3]: 5.87 μg/l air | Type [2, 5]: Bottom | Volatility (μg/l air) ([2]; Table 7, citrus note): 5.87 μg/l air | Type [2, 8]: Bottom

(+−)-3-(4-hydroxy-4-methylpentyl)-3-cyclohexene-1-carbaldehyde (A) + (+−)-4-(4-hydroxy-4-methylpentyl)-3-cyclohexene-1-carbaldehyde (B)
Odor Threshold (μg/l air) ([1]; Table 4, watery note): 8.81E−05 μg/l air | Odor Value [1, 11]: 7.92E+03 | Volatility (μg/l air) ([2]; Table 4, watery note): 0.70 μg/l air | Type [2, 13]: bottom (perfuming compounds having a volatility ranging from 49 to 0.1 μg/l in air are referred to as “bottom notes”)

9-ETHYLIDENE-3-OXATRICYCLO[6.2.1.0(2,7)]UNDECAN-4-ONE (A) + 10-ETHYLIDENE-3-OXATRICYCLO[6.2.1.0(2,7)] . . . (B)
Odor Threshold (μg/l air) ([1]; Table 7, citrus note): 1.42E−04 μg/l air | Odor Value [1, 12]: 1.48E+04 | Volatility (μg/l air) ([2]; Table 7, citrus note): 2.10 μg/l air | Type [2, 8]: Bottom

CC(=O)/C(C)=C(/C)C(C)C(C)(C)C (racemic)
Odor Threshold ([1]; Table 10, woody note): 7.24E−02 μg/l air | Type [2, 14]: Top | Volatility ([2]; Table 10, woody note): 659.22 μg/l air

COC(C)(C)CCCC(C)C(C)O (racemic)
Odor Threshold ([1]; Table 10, woody note): 2.66E−02 μg/l air | Type [2, 14]: Bottom | Volatility ([2]; Table 10, woody note): 35.54 μg/l air

C=C1C2CCC(C)(OCC)C1CCC2(C)C (racemic)
Odor Threshold ([1]; Table 10, woody note): 1.37E−01 μg/l air | Type [2, 14]: Top | Volatility ([2]; Table 10, woody note): 135.00 μg/l air

CCCCCC1CCC(=O)O1 (racemic) [(+−)-4-NONANOLIDE]
Odor Threshold [1, 3]: 1.45E−04 μg/l air | Odor Value [1, 3]: 1.89E+05 | Odor Threshold ([1]; Table 9, gourmand note): 1.45E−04 μg/l air | Volatility [2, 3]: 27.42 μg/l air | Type [2, 5]: Bottom | Volatility ([2]; Table 9, gourmand note): 27.42 μg/l air | Type [2, 7]: Bottom

CO[C@]1(C)CC[C@@]23C[C@@H]1C(C)(C)[C@@H]2CC[C@H]3C (racemic) [(+−)-8-methoxycedrane]
Odor Threshold ([1]; Table 10, woody note): 2.09E−02 μg/l air | Type [2, 14]: Bottom | Volatility ([2]; Table 10, woody note): 42.22 μg/l air

O=C/C=C/c1ccccc1 [(E)-3-PHENYL-2-PROPENAL]
Odor Threshold ([1]; Table 10, woody note): 1.36E−03 μg/l air | Type [2, 14]: Middle | Volatility ([2]; Table 10, woody note): 70.14 μg/l air

(3Z)-1,3-undecadien-5-yne (A) + (3E)-1,3-undecadien-5-yne (B)
Odor Threshold (μg/l air) ([1]; Table 7, citrus note): 3.32E−03 μg/l air | Odor Value [1, 12]: 2.98E+05 | Volatility (μg/l air) ([2]; Table 7, citrus note): 990.87 μg/l air | Type [2, 8]: Top

CCCOC(=O)[C@H](C)OC(C)(C)CC [(−)-PROPYL (S)-2-(1,1-DIMETHYLPROPOXY)PROPANOATE]
Odor Threshold (μg/l air) ([1]; Table 7, citrus note): 4.98E−01 μg/l air | Odor Value [1, 12]: 2.00E+03 | Volatility (μg/l air) ([2]; Table 7, citrus note): 995.16 μg/l air | Type [2, 8]: Top

CCCCCC=O [hexanal]
Odor Threshold (μg/l air) ([1]; Table 7, citrus note): 1.76E−03 μg/l air | Odor Value [1, 12]: 3.88E+07 | Odor Threshold (μg/l air) [1, 9]: 1.76E−03 μg/l air | Volatility (μg/l air) ([2]; Table 7, citrus note): 68294.85 μg/l air | Type [2, 8]: Top | Type [2, 10]: Top | Volatility (μg/l air) [2, 9]: 68294.85 μg/l air

CC(=O)OC(c1ccccc1)C(Cl)(Cl)Cl (racemic) [(+−)-2,2,2-TRICHLORO-1-PHENYLETHYL ACETATE]
Odor Threshold [1, 3]: 1.15E−03 μg/l air | Odor Value [1, 3]: 1.04E+04 | Odor Threshold (μg/l air) ([1]; Table 7, citrus note): 1.15E−03 μg/l air | Odor Value [1, 12]: 1.04E+04 | Volatility [2, 3]: 11.96 μg/l air | Type [2, 5]: Bottom | Volatility (μg/l air) ([2]; Table 7, citrus note): 11.96 μg/l air | Type [2, 8]: Bottom

CC(=O)/C=C/C1C(C)=CCCC1(C)C (racemic)
Odor Threshold (μg/l air) [1, 9]: 5.30E−04 μg/l air | Type [2, 10]: Middle | Volatility (μg/l air) [2, 9]: 68.11 μg/l air

COc1cc(C)ccc1O [2-METHOXY-4-METHYLPHENOL]
Odor Threshold [1, 4]: 6.96E−04 μg/l air | Odor Value [1, 4]: 4.41E+05 | Volatility [2, 4]: 306.61 μg/l air | Type [2, 6]: Top

CCOC(=O)C(C)CC (racemic) [(+−)-ethyl 2-methylbutanoate]
Odor Threshold (μg/l air) [1, 9]: 1.26E−04 μg/l air | Volatility [2, 3]: 83769.16 μg/l air | Type [2, 5]: TOP (perfuming compounds having a volatility ranging from 70,000 to 100 μg/l in air are referred to as “top notes”) | Type [2, 10]: Top | Volatility (μg/l air) [2, 9]: 83769.16 μg/l air

CCCCCCCCCCCC#N [DODECANENITRILE]
Odor Threshold (μg/l air) ([1]; Table 4, watery note): 3.20E−06 μg/l air | Odor Value [1, 11]: 1.77E+07 | Volatility (μg/l air) ([2]; Table 4, watery note): 56.74 μg/l air | Type [2, 13]: middle (perfuming compounds having a volatility ranging from 99 to 50 μg/l in air are referred to as “middle notes”)

C=CCCCCCCCCO [9-DECEN-1-OL]
Odor Threshold [1, 3]: 8.92E−03 μg/l air | Odor Value [1, 3]: 3.01E+03 | Odor Threshold (μg/l air) ([1]; Table 7, citrus note): 8.92E−03 μg/l air | Odor Value [1, 12]: 3.01E+03 | Volatility [2, 3]: 26.88 μg/l air | Type [2, 5]: Bottom | Volatility (μg/l air) ([2]; Table 7, citrus note): 26.88 μg/l air | Type [2, 8]: Bottom

CC1(C)C2C[C@H]3CCC(=O)C=C3[C@@H]1C2 (single isomer, unassigned; (+))
Odor Threshold ([1]; Table 10, woody note): 2.86E−05 μg/l air | Type [2, 14]: Bottom | Volatility ([2]; Table 10, woody note): 4.86 μg/l air

O=C(Cc1ccccc1)OCCc1ccccc1 [2-PHENYLETHYL PHENYLACETATE]
Odor Threshold [1, 3]: 9.08E−04 μg/l air | Odor Value [1, 3]: 2.24E+02 | Odor Threshold (μg/l air) ([1]; Table 7, citrus note): 9.08E−04 μg/l air | Odor Value [1, 12]: 2.24E+02 | Odor Threshold [1, 4]: 9.08E−04 μg/l air | Odor Value [1, 4]: 2.24E+02 | Odor Threshold ([1]; Table 9, gourmand note): 9.08E−04 μg/l air | Volatility [2, 3]: 0.20 μg/l air | Type [2, 5]: Bottom | Volatility (μg/l air) ([2]; Table 7, citrus note): 0.20 μg/l air | Type [2, 8]: Bottom | Volatility [2, 4]: 0.20 μg/l air | Type [2, 6]: Bottom | Volatility ([2]; Table 9, gourmand note): 0.20 μg/l air | Type [2, 7]: Bottom

CC/C=C\CCOC(=O)CCC [(3Z)-3-hexen-1-yl butyrate]
Odor Threshold (μg/l air) [1, 9]: 7.85E−02 μg/l air | Volatility [2, 3]: 1674.15 μg/l air | Type [2, 5]: TOP (perfuming compounds having a volatility ranging from 70,000 to 100 μg/l in air are referred to as “top notes”) | Type [2, 10]: Top | Volatility (μg/l air) [2, 9]: 1674.15 μg/l air

CCCCCCCCCC(C)C=O (racemic) [(+−)-2-methylundecanal]
Odor Threshold (μg/l air) ([1]; Table 4, watery note): 7.24E−05 μg/l air | Odor Value [1, 11]: 1.04E+06 | Volatility (μg/l air) ([2]; Table 4, watery note): 75.55 μg/l air | Type [2, 13]: middle (perfuming compounds having a volatility ranging from 99 to 50 μg/l in air are referred to as “middle notes”)
